# Experimental data as given in patent US20170290328A1, “COMPOSITIONS AND METHODS FOR APPLYING AGRICULTURAL PRODUCTS” (priority 2014, published 2017).
# Assays:
# Marestail [1] = assay: Additional field trial, Clarity + Roundup PowerMax with adjuvant formulations, weed control; assay type: in vivo, Conyza canadensis; conditions: Clarity tank mixed with Roundup PowerMax, Example 2
# Protocol: Additional field trials were performed that compared Sharpen (active ingredient: saflufenacil ([2-chloro-4-fluoro-5-(3-methyl-2,6-dioxo-4-(trifluoromethyl)-3, 6-dihydro-1(2H)-pyrimidinyl)benzoyl]-N-isopropyl-N-methylsulfamide)) or Clarity (active ingredient: diglycolamine salt of 3,6-dichloro-o-anisic acid) to formulations described herein.
# Marestail [2] = assay: Roundup PowerMax Plus Sharpen Trials, weed control evaluation; assay type: in vivo
# Protocol: (§1) Each treatment was comprised of a mixture of Roundup PowerMax (glyphosate potassium) at 11 oz/ac plus Sharpen (saflufenacil) diluted and applied at 10 gallons/acre spray volume. A-110 is a polymeric nonionic and alkyl and aryl ethoxylate blend emulsifier commercially available from Adjuvants Unlimited (Tulsa, Okla). Emulsifier “D” is a blend of polyoxyalkenes and ethoxylated castor oil and other components.
# (§2) Trials were conducted in Indiana, North Dakota, and Ohio (1 location per state). Weed species varied by location but included glyphosate resistant marestail or kochia. Weed control (herbicide efficacy) evaluations were taken at approximately 7, 14, and 28 days after herbicides were applied.
# kochia [3] = assay: as above; assay type: in vivo; conditions: North Dakota, 10% methyl salicylate substituted for methylated soybean oil
# Protocol: as §1, §2
# Marestail [4] = assay: Instigate Trials, weed control evaluation; assay type: in vivo
# Protocol: (§3) Each treatment was comprised of Instigate applied at 3 oz product/ac, diluted and applied at 10 gallons/acre spray volume.
# (§4) Trials were conducted in Indiana, North Dakota, and Ohio (1 location per state).
# (§5) Weed species varied by location but included glyphosate resistant marestail or kochia. Weed control (herbicide efficacy) evaluations were taken at approximately 7, 14, and 28 days after herbicides were applied.
# kochia [5] = assay: Instigate Trials, weed control evaluation; assay type: in vivo; conditions: North Dakota, 27 days after treatment, with methylated soybean oil and AU-110 and F emulsifiers
# Protocol: as §3, §4, §5
# Marestail [6] = assay: Paraquat Concentrate Trials, weed control evaluation; assay type: in vivo; conditions: Indiana; Paraquat Concentrate Trials (text prints Instigate)
# Protocol: (§6) Each treatment was comprised of Paraquat Concentrate applied at 0.45 pt product/ac, diluted and applied at 10 gallons/acre spray volume.
# as §4, §5
# common lambsquarters = assay: as above; assay type: in vivo; conditions: North Dakota; Paraquat Concentrate 0.45 pt product/ac
# Protocol: as §6, §4, §5
# wheat = assay: as above; assay type: in vivo; conditions: North Dakota; Paraquat Concentrate 0.45 pt product/ac
# Protocol: as §6, §4, §5
structure (smiles),measurement,setting,value
COC(=O)c1ccccc1O [methyl salicylate],Change of control of glyphosate-resistant marestail (in words),Marestail [1],did not increase control
same,marestail control (in words),"Marestail [2]; Indiana, Roundup PowerMax 11 oz/ac plus Sharpen",no increase in control
same,marestail control (in words),"Marestail [2]; Ohio, Roundup PowerMax 11 oz/ac plus Sharpen",numerically greater
same,marestail control (in words),"Marestail [2]; Ohio, Roundup PowerMax plus Sharpen, 14 days after treatment, with D emulsifier and F emulsifiers",greater
same,kochia control (in words),kochia [3]; with the AU-110 or F emulsifier,not
same,kochia control (in words),kochia [3]; with the D emulsifier,increased control
same,marestail control (in words),"Marestail [4]; Indiana, Instigate 3 oz product/ac",did not increase marestail control
same,marestail control (in words),"Marestail [4]; Ohio, Instigate, with methylated soybean oil and F emulsifier",increased marestail control
same,kochia control (in words),kochia [5],numerically greater
same,marestail control (in words),Marestail [6],did not increase marestail control
same,common lambsquarters control (in words),common lambsquarters,did not increase control
same,wheat control (in words),wheat,did not increase control
